For orientation: IC50 means the concentration needed to halve the response being measured.

The structures appear in SMILES notation.

Data set [1] relates to Poly I:C-induced ICAM-1 expression in BEAS2B cells. Put plainly: Poly I:C-induced ICAM-1 expression in BEAS2B cells. It counts as cell-based. The following applies: Homo sapiens, BEAS-2B, read-out: Poly IC induced ICAM1 in BEAS2B IC50. In a few lines: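 BEAS2B human bronchial epithelial cells pre-incubated with compound for 2 hr, then transfected with 1 μg/mL poly I:C plus Oligofectamine. At 18 hr, surface ICAM-1 measured by cell-based ELISA (HRP, OD450–655). Signal corrected for cell number by crystal violet OD595.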

For data set [2], the system named is LPS-induced TNFα release in d-U937 cells. Put plainly: LPS-induced TNFα release in d-U937 cells. It counts as cell-based. To be noted: Homo sapiens, dU937, relative to 10 μg/mL BIRB796, read-out: LPS Induced Release of Cytokine in d-937 Cells TNFα REC50. In short, it runs like this:
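Read-out: TNFα and IL-8 released into supernatant, sandwich ELISA, expressed as inhibition versus vehicle at each dose and fitted to give REC50. Cells were PMA-differentiated U937 (100 ng/mL, 48–72 hr), compound-exposed 2 hr before a 4 hr LPS stimulus (0.1 μg/mL).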

The test system of data set [3] is LPS-induced IL-8 release in d-U937 cells. Put plainly: LPS-induced IL-8 release in d-U937 cells. The following applies: Homo sapiens, dU937, read-out: LPS Induced Release of Cytokine in d-937 Cells IL-8 IC50. It counts as cell-based. In short, it runs like this:
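First, U937 monocytes undergo PMA treatment (100 ng/mL) for 48 to 72 hr to become macrophage-type. Next, compound at final concentrations is added for 2 hr, followed by LPS at 0.1 μg/mL for 4 hr. Finally, cytokines in the supernatant are quantified by ELISA against vehicle-treated cells.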

The target of data set [4] is Syk (Homo sapiens (Human), UniProt P43405). Put plainly: Syk enzyme inhibition (FRET, Z-LYTE). Type of data set: biochemical. In short, it runs like this:
(§1)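 Z-LYTE FRET kinase assay: enzyme (3000 or 2000 ng/mL stock, respectively) preincubated 2 h at RT with compound (4–0.004 μg/mL stocks), then FRET peptide plus ATP (800 μM stock for c-Src, 60 μM for Syk) added for 1 h. Protease development 1 h; phosphorylation from coumarin/fluorescein emission ratio.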

The target of data set [5] is cSrc (Homo sapiens (Human), UniProt P12931). Put plainly: c-Src enzyme inhibition (FRET, Z-LYTE). It counts as biochemical. In short, it runs like this: as §1
Sequence of cSrc (P12931 whole entry, looked up): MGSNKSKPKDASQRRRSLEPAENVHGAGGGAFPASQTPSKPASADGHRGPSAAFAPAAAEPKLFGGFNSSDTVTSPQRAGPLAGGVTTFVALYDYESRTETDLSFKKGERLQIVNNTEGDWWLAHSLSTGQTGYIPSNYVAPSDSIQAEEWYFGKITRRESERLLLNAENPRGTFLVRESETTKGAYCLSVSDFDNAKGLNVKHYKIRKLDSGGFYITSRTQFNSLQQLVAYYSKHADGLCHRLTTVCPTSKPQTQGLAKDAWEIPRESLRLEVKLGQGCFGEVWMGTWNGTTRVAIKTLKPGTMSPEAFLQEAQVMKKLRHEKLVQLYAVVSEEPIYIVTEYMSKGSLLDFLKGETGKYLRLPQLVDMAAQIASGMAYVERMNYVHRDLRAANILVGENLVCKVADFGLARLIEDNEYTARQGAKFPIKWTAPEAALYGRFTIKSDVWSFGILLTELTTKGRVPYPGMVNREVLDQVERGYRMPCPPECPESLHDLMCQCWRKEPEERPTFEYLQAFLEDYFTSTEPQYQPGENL
The subject of data set [6] is d-U937 cells. Put plainly: Cell viability: MTT assay. Type of data set: cell-based, human. The following applies: 1 μg/mL. In short, it runs like this: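 Differentiated U937 cells were exposed to compound at 1 or 10 μg/mL either 4 h in 5% FCS RPMI1640 or 24 h in 10% FCS RPMI1640, then given MTT for 1 h, DMSO-solubilised and read at 550 nm. Percent viability loss versus 0.5% DMSO vehicle; apparent gains appear negative.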
A general note: Tetrazolium dyes change colour on reduction, which living cells bring about.

The target of data set [7] is GSK3α (Homo sapiens (Human), UniProt P49840). Put plainly: GSK 3α enzyme inhibition (FRET, Z-LYTE). Type of data set: biochemical. In short, it runs like this:
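GSK3α (500 ng/mL stock) was preincubated 2 hr at RT with compound (4 to 0.004 μg/mL stocks), then FRET peptide (8 μM stock) and ATP (40 μM stock) added for 1 hr. Protease development for 1 hr cleaved unphosphorylated peptide; coumarin/fluorescein emission ratio reported phosphorylation.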

In data set [8] the target is p38 MAPKα (Homo sapiens (Human), UniProt Q16539). Put plainly: p38 MAPKα enzyme inhibition (FRET, Z-LYTE). It counts as biochemical.
Sequence of p38 MAPKα (Q16539 whole entry): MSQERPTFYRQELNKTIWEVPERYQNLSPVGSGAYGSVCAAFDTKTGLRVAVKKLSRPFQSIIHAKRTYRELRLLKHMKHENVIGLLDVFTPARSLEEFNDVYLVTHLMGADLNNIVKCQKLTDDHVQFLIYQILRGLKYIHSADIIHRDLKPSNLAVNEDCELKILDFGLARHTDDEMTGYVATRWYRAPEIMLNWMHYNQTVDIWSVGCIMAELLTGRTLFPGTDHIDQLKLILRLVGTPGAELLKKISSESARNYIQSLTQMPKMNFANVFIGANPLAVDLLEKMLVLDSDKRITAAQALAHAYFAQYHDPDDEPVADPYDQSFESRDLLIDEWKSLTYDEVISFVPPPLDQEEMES

Sequence of GSK3α (P49840 whole entry): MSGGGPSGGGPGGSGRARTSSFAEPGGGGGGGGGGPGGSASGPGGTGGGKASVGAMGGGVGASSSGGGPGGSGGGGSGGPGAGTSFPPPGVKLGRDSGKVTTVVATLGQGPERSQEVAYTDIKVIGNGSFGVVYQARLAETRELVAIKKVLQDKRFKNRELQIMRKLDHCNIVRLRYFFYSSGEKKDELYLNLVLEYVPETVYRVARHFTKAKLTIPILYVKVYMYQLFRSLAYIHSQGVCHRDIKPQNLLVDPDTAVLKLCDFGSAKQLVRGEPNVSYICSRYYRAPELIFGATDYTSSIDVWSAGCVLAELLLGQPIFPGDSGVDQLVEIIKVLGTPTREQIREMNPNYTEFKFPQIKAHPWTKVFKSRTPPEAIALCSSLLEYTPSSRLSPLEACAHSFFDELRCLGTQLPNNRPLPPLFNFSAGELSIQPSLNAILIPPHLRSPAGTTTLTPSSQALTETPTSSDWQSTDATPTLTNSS

As to `CC(C)(C)c1cc(NC(=O)Nc2ccc(Oc3ccnc(Nc4ccc5[nH]ncc5c4)c3)c3ccccc23)n(-c2ccc(OCCN3CCOCC3)cc2)n1` [Example 67], the half-inhibitory concentration (IC50) was 2.5 nM in data set [1]; 0.3 nM in data set [3]; < 1 nM in data set [4]; < 1 nM in data set [5]; 3040 nM in data set [7]; 5 nM in data set [8]. The EC50 in data set [2] is 1.5 nM. In addition, the “MTT Assay Cell viability at time point in d-U937 cells 4 h” value in data set [6] was “−ve (−ve and +ve indicate that the value is below and above respectively, the no significant effect threshold, defined as 30% inhibition at 1 μg/mL at the time point indicated.)”. For the same compound, the “MTT Assay Cell viability at time point in d-U937 cells 24 h” value in data set [6] is “−ve (−ve and +ve indicate that the value is below and above respectively, the no significant effect threshold, defined as 30% inhibition at 1 μg/mL at the time point indicated.)”.

Regarding `CC(C)(C)c1cc(NC(=O)Nc2ccc(Oc3ccnc(Nc4ccc5c(c4)NC(=O)C5(C)C)n3)c3ccccc23)n(-c2ccc(OCCN3CCOCC3)cc2)n1` [Example 62, 1-(3-(tert-butyl)-1-(4-(2-morpholinoethoxy)phenyl)-1H-pyrazol-5-yl)-3-(4-((2-((3,3-dimethyl-2-oxoindolin-6-yl)amino)pyrimidin-4-yl)oxy)naphthalen-1-yl)urea], the concentration for half-maximal inhibition (IC50) turned out to be 11.6 nM in data set [1]; 22.7 nM in data set [3]; 9 nM in data set [4]; 5 nM in data set [5]; 1700 nM in data set [7]; 98 nM in data set [8]. Moreover, the EC50 in data set [2] worked out at 7.3 nM. Further, in data set [6], the “MTT Assay Cell viability at time point in d-U937 cells 4 h” value was “−ve (−ve and +ve indicate that the value is below and above respectively, the no significant effect threshold, defined as 30% inhibition at 1 μg/mL at the time point indicated.)”. In addition, the “MTT Assay Cell viability at time point in d-U937 cells 24 h” value in data set [6] is “−ve (−ve and +ve indicate that the value is below and above respectively, the no significant effect threshold, defined as 30% inhibition at 1 μg/mL at the time point indicated.)”.

Consider `Cc1cc(Nc2nccc(Oc3ccc(NC(=O)Nc4cc(C(C)(C)C)nn4-c4cccc(CN5CCCC5=O)c4)c4ccccc34)n2)cc2cn[nH]c12` [Example 10, 1-(3-(tert-Butyl)-1-(3-((2-oxopyrrolidin-1-yl)methyl)phenyl)-1H-pyrazol-5-yl)-3-(4-((2-((7-methyl-1H-indazol-5-yl)amino)pyrimidin-4-yl)oxy)naphthalen-1-yl)urea], for which the concentration for half-maximal inhibition (IC50) in data set [1] is 3.9 nM; in data set [3], 1.2 nM; in data set [4], 2 nM; in data set [5], < 1 nM; in data set [7] it was 589 nM; in data set [8], 18 nM. For the same compound, the EC50 in data set [2] amounted to 1.4 nM. The “MTT Assay Cell viability at time point in d-U937 cells 4 h” value in data set [6] was “−ve (−ve and +ve indicate that the value is below and above respectively, the no significant effect threshold, defined as 30% inhibition at 1 μg/mL at the time point indicated.)”. In addition, the “MTT Assay Cell viability at time point in d-U937 cells 24 h” value in data set [6] was “−ve (−ve and +ve indicate that the value is below and above respectively, the no significant effect threshold, defined as 30% inhibition at 1 μg/mL at the time point indicated.)”.

As for `CC(C)(C)c1cc(NC(=O)Nc2ccc(Oc3ccnc(Nc4ccc5oc(=O)[nH]c5c4)n3)c3ccccc23)n(-c2ccc(OCCN3CCOCC3)cc2)n1` [Example 76, 1-(3-(tert-butyl)-1-(4-(2-morpholinoethoxy)phenyl)-1H-pyrazol-5-yl)-3-(4-((2-((2-oxo-2,3-dihydrobenzo[d]oxazol-5-yl)amino)pyrimidin-4-yl)oxy)naphthalen-1-yl)urea], the half-maximal inhibitory concentration (IC50) in data set [1] is 2.2 nM; in data set [3] it was 0.3 nM; in data set [4], 34 nM; in data set [5], 15 nM; in data set [7], 777 nM; in data set [8] it was 48 nM. Besides, the EC50 in data set [2] amounted to 12.5 nM. The “MTT Assay Cell viability at time point in d-U937 cells 4 h” value in data set [6] is “−ve (−ve and +ve indicate that the value is below and above respectively, the no significant effect threshold, defined as 30% inhibition at 1 μg/mL at the time point indicated.)”. For the same compound, the “MTT Assay Cell viability at time point in d-U937 cells 24 h” value in data set [6] is “−ve (−ve and +ve indicate that the value is below and above respectively, the no significant effect threshold, defined as 30% inhibition at 1 μg/mL at the time point indicated.)”.

As to `COCCOc1cccc(-n2nc(C(C)(C)C)cc2NC(=O)Nc2ccc(Oc3ccnc(Nc4cc(C)c5[nH]ncc5c4)c3)c3ccccc23)c1` [Example 57], the 50% inhibitory concentration (IC50) in data set [1] was 4.4 nM; in data set [3] it was 2.3 nM; in data set [4] it was 15 nM; in data set [5] it was 19 nM; in data set [7] it was 4700 nM; in data set [8] it was 74 nM. Besides, the EC50 in data set [2] amounted to 1.1 nM. For the same compound, the “MTT Assay Cell viability at time point in d-U937 cells 4 h” value in data set [6] was “−ve (−ve and +ve indicate that the value is below and above respectively, the no significant effect threshold, defined as 30% inhibition at 1 μg/mL at the time point indicated.)”. Besides, the “MTT Assay Cell viability at time point in d-U937 cells 24 h” value in data set [6] was “−ve (−ve and +ve indicate that the value is below and above respectively, the no significant effect threshold, defined as 30% inhibition at 1 μg/mL at the time point indicated.)”.

Regarding `CC(C)(C)c1cc(NC(=O)Nc2ccc(Oc3ccnc(Nc4ccc5c(c4)OCCO5)n3)c3ccccc23)n(-c2ccc(OCCN3CCOCC3)cc2)n1` [Example 11, 1-(3-(tert-Butyl)-1-(4-(2-morpholinoethoxy)phenyl)-1H-pyrazol-5-yl)-3-(4-((2-((2,3-dihydrobenzo[b][1,4]dioxin-6-yl)amino)pyrimidin-4-yl)oxy)naphthalen-1-yl)urea], the IC50 in data set [1] turned out to be 7.9 nM; in data set [3], 25.2 nM; in data set [4] it was 15 nM; in data set [5], 6 nM; in data set [7] it was 848 nM; in data set [8], 39 nM. Moreover, the EC50 in data set [2] stood at 8.5 nM. For the same compound, in data set [6], the “MTT Assay Cell viability at time point in d-U937 cells 4 h” value is “−ve (−ve and +ve indicate that the value is below and above respectively, the no significant effect threshold, defined as 30% inhibition at 1 μg/mL at the time point indicated.)”. Moreover, the “MTT Assay Cell viability at time point in d-U937 cells 24 h” value in data set [6] is “−ve (−ve and +ve indicate that the value is below and above respectively, the no significant effect threshold, defined as 30% inhibition at 1 μg/mL at the time point indicated.)”.

Turning to `CC(C)(C)c1cc(NC(=O)Nc2ccc(Oc3ccnc(Nc4ccc5c(c4)C(=O)NC5)n3)c3ccccc23)n(-c2ccc(OCCN3CCOCC3)cc2)n1` [Example 63, 1-(3-(tert-butyl)-1-(4-(2-morpholinoethoxy)phenyl)-1H-pyrazol-5-yl)-3-(4-((2-((3-oxoisoindolin-5-yl)amino)pyrimidin-4-yl)oxy)naphthalen-1-yl)urea], the 50% inhibitory concentration (IC50) in data set [1] is 0.3 nM; in data set [3], 2.8 nM; in data set [4], 10 nM; in data set [5], < 1 nM; in data set [7], 184 nM; in data set [8] it was 14 nM. Also, in data set [2], the EC50 was determined as 1.5 nM. Moreover, the “MTT Assay Cell viability at time point in d-U937 cells 4 h” value in data set [6] was “−ve (−ve and +ve indicate that the value is below and above respectively, the no significant effect threshold, defined as 30% inhibition at 1 μg/mL at the time point indicated.)”. Moreover, the “MTT Assay Cell viability at time point in d-U937 cells 24 h” value in data set [6] is “−ve (−ve and +ve indicate that the value is below and above respectively, the no significant effect threshold, defined as 30% inhibition at 1 μg/mL at the time point indicated.)”.
